Data reported in PubChem BioAssay AID248 (DTP/NCI, 2004).
Where “and” joins values, the source holds several entries; their conditions need not be identical. Equal entries are not always repeated. Toxic doses and inconclusive results are not listed. Cut-off read from the data, not from the text of the source: active = T/C of 150% or more; inactive = T/C below 125%.

Test system: L1210 leukemia ip in BDF1 mice, survival T/C
Experiment: NCI In Vivo Anticancer Drug Screen. Data for tumor model L1210 Leukemia (intraperitoneal) in B6D2F1 (BDF1) mice
Conditions: endpoint: mean survival time, higher = longer survival
How it was run: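 Transplantable tumor model; survival measured in treated vs vehicle control mice. Value = treated/control.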

[1] = dose: 100.0 mg/kg/injection, schedule: Q01DX001 (ip), vehicle: Klucel (hydroxypropylcellulose) (HPC)
[2] = dose: 200.0 mg/kg/injection, schedule: Q01DX001 (ip), vehicle: Klucel (hydroxypropylcellulose) (HPC)
[3] = dose: 400.0 mg/kg/injection, schedule: Q01DX001 (ip), vehicle: Klucel (hydroxypropylcellulose) (HPC)
[4] = dose: 100.0 mg/kg/injection, schedule: Q01DX009 (ip), vehicle: Klucel (hydroxypropylcellulose) (HPC)
[5] = dose: 100.0 mg/kg/injection, schedule: Q04DX003 (ip), vehicle: Klucel (hydroxypropylcellulose) (HPC)
[6] = dose: 200.0 mg/kg/injection, schedule: Q01DX009 (ip), vehicle: Klucel (hydroxypropylcellulose) (HPC)
[7] = dose: 200.0 mg/kg/injection, schedule: Q04DX003 (ip), vehicle: Klucel (hydroxypropylcellulose) (HPC)
[8] = dose: 400.0 mg/kg/injection, schedule: Q01DX009 (ip), vehicle: Klucel (hydroxypropylcellulose) (HPC)
[9] = dose: 400.0 mg/kg/injection, schedule: Q04DX003 (ip), vehicle: Klucel (hydroxypropylcellulose) (HPC)
[10] = dose: 100.0 mg/kg/injection, schedule: Q04DX002 (ip), vehicle: Klucel (hydroxypropylcellulose) (HPC)
[11] = dose: 200.0 mg/kg/injection, schedule: Q04DX002 (ip), vehicle: Klucel (hydroxypropylcellulose) (HPC)
[12] = dose: 400.0 mg/kg/injection, schedule: Q04DX002 (ip), vehicle: Klucel (hydroxypropylcellulose) (HPC)
[13] = dose: 100.0 mg/kg/injection, schedule: Q01DX001 (ip), vehicle: saline
[14] = dose: 200.0 mg/kg/injection, schedule: Q01DX001 (ip), vehicle: saline

Measured: T/C

CCOC(=O)C(OCc1ccccc1)(C(=O)Cl)C(C)C (stereo unspecified)
inactive: dose: 6.25 mg/kg/injection, schedule: Q01DX009 (ip), vehicle: saline with Tween-80 98 % of control | dose: 6.25 mg/kg/injection, schedule: Q04DX003 (ip), vehicle: saline 93 % of control | dose: 12.5 mg/kg/injection, schedule: Q01DX009 (ip), vehicle: saline with Tween-80 100 % of control | dose: 12.5 mg/kg/injection, schedule: Q04DX003 (ip), vehicle: saline 97 % of control | dose: 25.0 mg/kg/injection, schedule: Q01DX009 (ip), vehicle: saline with Tween-80 98 % of control | dose: 25.0 mg/kg/injection, schedule: Q04DX003 (ip), vehicle: saline 92 % of control | dose: 50.0 mg/kg/injection, schedule: Q04DX003 (ip), vehicle: saline 103 % of control

O=C(Nc1ccccc1)Oc1cccnc1
inactive: [1] 98 % of control | [2] 100 % of control | [3] 98 % of control

O=[N+]([O-])c1ccc(Cl)c2c([N+](=O)[O-])cccc12
inactive: dose: 100.0 mg/kg/injection, schedule: Q04DX003 (ip), vehicle: saline with Tween-80 94 % of control | dose: 200.0 mg/kg/injection, schedule: Q04DX003 (ip), vehicle: saline with Tween-80 102 % of control

CNC(=O)Nc1cccc2c(=O)[nH][nH]c(=O)c12
inactive: [4] 114 % of control | [5] 97 % of control | [6] 100 % of control | [7] 108 % of control | [8] 86 % of control | [9] 91 % of control

CC(=O)N(C)c1ccc(NC(=O)Nc2ccccc2F)cc1
inactive: [4] 98 % of control | [6] 95 % of control | [8] 95 % of control

Nc1ccc(Cl)cc1-c1ccccc1
inactive: dose: 55.0 mg/kg/injection, schedule: Q01DX Z (ip), vehicle: saline 105 % of control | dose: 125.0 mg/kg/injection, schedule: Q01DX Z (ip), vehicle: saline 104 % of control

O=C(O)CSC(SCC(=O)O)(c1ccccc1)c1ccccc1
inactive: [10] 88 % of control | [11] 104 % of control | [12] 102 % of control

Oc1ccc2ccccc2c1-c1c(O)ccc2ccccc12
inactive: dose: 12.5 mg/kg/injection, schedule: Q01DX Z (ip), vehicle: other 106 % of control | dose: 25.0 mg/kg/injection, schedule: Q01DX Z (ip), vehicle: other 103 % of control | dose: 50.0 mg/kg/injection, schedule: Q01DX Z (ip), vehicle: other 106 % of control | [4] 97 % of control | dose: 100.0 mg/kg/injection, schedule: Q01DX Z (ip), vehicle: other 116 % of control | [5] 111 % of control | [6] 94 % of control | [7] 94 % of control | [9] 103 % of control

S=C(NNc1ccccc1)Nc1ccccc1
inactive: [1] 93 % of control | [2] 103 % of control | [3] 95 % of control

CC/C(=C(\CC)c1ccc(OCC(=O)N(CCCl)CCCl)cc1)c1ccc(OCC(=O)N(CCCl)CCCl)cc1
inactive: dose: 5.0 mg/kg/injection, schedule: Q04DX002 (ip), vehicle: saline 105 % of control | dose: 10.0 mg/kg/injection, schedule: Q04DX002 (ip), vehicle: saline 97 % of control | dose: 20.0 mg/kg/injection, schedule: Q04DX002 (ip), vehicle: saline 94 % of control

O=C1c2ccc(Br)cc2-c2cc(Br)c([N+](=O)[O-])cc21
inactive: dose: 100.0 mg/kg/injection, schedule: Q01DX001 (ip), vehicle: carboxymethylcellulose (CMC) 98 % of control | dose: 200.0 mg/kg/injection, schedule: Q01DX001 (ip), vehicle: carboxymethylcellulose (CMC) 98 % of control | dose: 400.0 mg/kg/injection, schedule: Q01DX001 (ip), vehicle: carboxymethylcellulose (CMC) 113 % of control

CN(C(=O)C1(C)CC2C=CC1C2)c1ccccc1 (stereo unspecified)
inactive: [1] 100 % of control | [2] 102 % of control | [3] 97 % of control

CC(=O)OC1OC(COC(=O)c2ccccc2)C(OC(=O)c2ccccc2)C1OC(=O)c1ccccc1 (stereo unspecified)
inactive: [1] 118 % of control and 95 % of control | [4] 92 % of control | [2] 97 % of control and 92 % of control | [3] 101 % of control and 92 % of control | [8] 92 % of control

Cc1ccc(S(=O)(=O)NC(CCC(=O)O)C(=O)O)cc1 (stereo unspecified)
inactive: [13] 91 % of control | dose: 100.0 mg/kg/injection, schedule: Q01DX009 (ip), vehicle: saline 93 % of control | dose: 100.0 mg/kg/injection, schedule: Q04DX003 (ip), vehicle: saline 108 % of control | [14] 102 % of control | dose: 200.0 mg/kg/injection, schedule: Q01DX009 (ip), vehicle: saline 100 % of control | dose: 200.0 mg/kg/injection, schedule: Q04DX003 (ip), vehicle: saline 103 % of control | dose: 400.0 mg/kg/injection, schedule: Q01DX009 (ip), vehicle: saline 88 % of control | dose: 400.0 mg/kg/injection, schedule: Q04DX003 (ip), vehicle: saline 106 % of control

CN1CCCC1=Nc1ccc([N+](=O)[O-])cc1
inactive: [4] 104 % of control | [6] 108 % of control | [8] 102 % of control

COc1ccc(OC)c(NC(=O)Nc2cccc(Cl)c2Cl)c1
inactive: [5] 86 % of control | [7] 90 % of control | [9] 88 % of control

CC(C)(C)c1cc(C[P+](c2ccc(Cl)cc2)(c2ccc(Cl)cc2)c2ccc(Cl)cc2)cc(C(C)(C)C)c1O
inactive: dose: 12.5 mg/kg/injection, schedule: Q01DX009 (ip), vehicle: Klucel (hydroxypropylcellulose) (HPC) 97 % of control | dose: 25.0 mg/kg/injection, schedule: Q01DX009 (ip), vehicle: Klucel (hydroxypropylcellulose) (HPC) 88 % of control | [5] 98 % of control | [7] 100 % of control

Cc1cc(C)c([I+]c2ccccc2C(=O)[O-])c(C)c1
inactive: dose: 50.0 mg/kg/injection, schedule: Q01DX001 (ip), vehicle: saline 97 % of control | [13] 105 % of control | [14] 100 % of control | dose: 400.0 mg/kg/injection, schedule: Q01DX001 (ip), vehicle: saline 103 % of control

N#C/C(=C\C1CCCC([N+](=O)[O-])C1)C1CCC([N+](=O)[O-])CC1 (stereo unspecified)
inactive: [10] 122 % of control | [11] 100 % of control | [12] 100 % of control

C1CN(C[C@H]2COC[C@@H](CN3CCOCC3)O2)CCO1
inactive: dose: 75.0 mg/kg/injection, schedule: Q04DX003 (ip), vehicle: saline 98 % of control | dose: 150.0 mg/kg/injection, schedule: Q04DX003 (ip), vehicle: saline 106 % of control | dose: 300.0 mg/kg/injection, schedule: Q04DX003 (ip), vehicle: saline 95 % of control

O=S(=O)(O)c1ccc(S)cc1
inactive: dose: 75.0 mg/kg/injection, schedule: Q01DX001 (ip), vehicle: other 117 % of control
